Data on 7 compounds can be found in US20050036962A1, “Compositions and method for protecting skin from UV induced immunosuppression and skin damage” (Novogen Research Pty. Ltd., priority 1997, published 2005).

Test [1] has as its system Hairless albino Sh:HR-1 mice. The test can be described thus: Contact hypersensitivity (CHS) reaction to oxazolone after UV irradiation, Example 2. The settings on record: for % Suppression of CHS: UV-irradiated vs non-UV group, lotion 20 μM compound (glucan 10% w/w in lotion B; clover extract 0.5% w/w), topical after each daily UV; for prevention/amelioration of UV induced immunosuppression (in words): topical lotion after UV, CHS model. Format: in vivo, mouse. The source says: O'Dell et al (1980 Arch. Dermatol, 116, 559-561) have shown that sun-exposed skin areas on humans are immunologically impaired according to non-exposed skin. A standard model for testing immunosuppression, that is a model with reference to human immunosuppression, is the hairless mouse. A standard test in the hairless mouse model is the contact hypersensitivity (CHS) reaction to an immune irritant such as oxazolone (Asherson and Ptak, Immunology, (1968) 15:405-416). The compound oxazolone induces a vigorous immune response in the hairless mouse which may be measured by ear swelling. Immune suppression by UV light or other agents can be readily tested in the model. See for example Kondo, S, McKenzie, R. C., Sauder, D. N., J. Invest. Dermatol., 103:811-814; Reeve et al, Cancer Letts., 108:271-279 (1996); and Reeve et al, J. Invest. Dermatol., 103:801-806 (1994). As will be shown in the non-limiting examples which follow, compositions comprising compounds of the Formula (I) were active in the treatment/prevention/amelioration of UV induced immunosuppression in the hairless mouse model, which as discussed above is directly referable to the situation in human skin, for example, Yoshikawa et al, J. Invest. Dermatol., 95:530-536, (1990).
The CHS reaction in mice is a standard model for immunosuppression and is a representative model for human immunosuppression (Yoshikawa et al, Invest. Dermatol., 95:530-536 (1990)).
(§1) The CHS reaction was carried out according to the protocol of Reeve et al, Immunology, 78:99-104 (1993). Hairless albino Sh:HR-1 mice were divided into two treatment groups. The first treatment group designated group 1 was not subject to UV irradiation, and received either 0.2 ml of test lotion “A” or test lotion ‘B’ painted on to the dorsal skin on four consecutive days (that is, 4 μmol/mouse, or approximately 0.1 μmol/cm^2). The second treatment group, group 2, were UV irradiated with a minimal erythemal dose of UV light which simulates the toxic effect of sunlight on the skin. After each daily UV treatment 0.2 ml of treatment solution was applied to the dorsal skin as for treatment group 1. Mid-dorsal skinfold thickness was measured every twenty four hours to indicate erythema oedema. CHS to oxazolone was induced on abdominal skin seven days after the first treatment followed by challenge on the ears on day 15, and average ear swelling was determined as a measure of immune response.
Genistein, daidzein, equol, tetrahydrodaidzein, ODMA, dehydroequol and clover extract were tested in this experiment in test lotion “A”. Equol, genistein and clover extract were also tested in tes lotion ‘B’. The results expressed below are given as a percentage of suppression of CHS measured with reference to the non-UV exposed treatment group 1, which is induced by UV exposure.

For test [2], the system named is Hairless albino Sh:HR-1 mice. Put plainly: Mid-dorsal skinfold thickness (erythema/oedema) after UV irradiation, Example 2. Format: in vivo, mouse. Conditions: for average skin fold increase / negative average skin fold increase: seven days after treatment; for average skin fold increase: one unit = 0.001 in, test lotion A; for negative average skin fold increase: given as a negative increase, substantially no increase in skin fold thickness; for erythema/oedema (in words): measured at day four and day seven. Here is the method:
as §1
Erythema/oedema was measured at day four and day seven of the treatment groups. […] For example, at seven days after treatment for base lotion “A” average skin fold thickness was six units (that is 0.006 in), for the daidzein containing lotion average skin fold increase was seven units, and for tetrahydrodaidzein average skin fold thickness was five units. In contrast, for equol, genistein, dehydroequol and ODMA there was a negative average skin fold increase of approximately 0.2, which corresponds to substantially no increase in skin fold thickness.

Test [3] has as its system Hairless albino Sh:HR-1 mice. The test can be described thus: CHS reaction to oxazolone after UVB irradiation, equol/glucan lotions, Example 4. Format: in vivo, mouse. The settings on record: for % Suppression of CHS: 1 MED (UVB) for 3 days, equol 2.5 uM, glucan 20% in base lotion, ears measured day 15; for decreasing percentage suppression of hypersensitivity and skin fold thickness (in words): compared to the control groups. The procedure:
The CHS reaction was carried out as in Example 2. Hairless albino Sh:HR-1 mice were divided into eight treatment groups as shown: • 1. base lotion+MED (UVB) for […] • 2. glucan (20%) in base lotion+1 MED (UVB) for 3 days • 3. Equol (2.5 uM) in base lotion+1 MED (UVB) for 3 days • 4. Equol (2.5 uM)+glucan (20%) in base lotion+1 MED (UVB) for 3 days • 5. base lotion and no irradiation for three days (Control) • 6. glucan (20%) in base lotion and no irradiation for three days (Control) • 7. Equol (2.5 uM) in base lotion and no irradiation for three days (Control) • 8. Equol (2.5 uM)+glucan (20%) in base lotion and no irradiation for three days (Control)
On days 7 and 8 the mice were sensitised with 2% oxazolone in alcohol (100 ul/mouse). On day 14, the ears were challenged with 2% oxazolone (20 ul/mouse). On day 15, the ears were measured for skin fold thickness and suppression of […] hypersensitivity.

The next test deals with Human subjects. The test can be described thus: Erythema intensity at UV-irradiated skin sites on the back, post-UV topical lotion, Example 3. In kind it is in vivo. Conditions: UV + lotion with 100 μM equol. The procedure:
Tests were performed at the Australian Photobiology Testing Facility at the University of Sydney. Human subjects were tested in a controlled solarium. A grid was established using reference coordinate points on the back of each subject, thereby providing a series of treatment sites on the back of each patient where the erythema-reducing potential of compositions according to the invention could be tested.
Compounds of the Formula (I) were dissolved in DMSO and incorporated into base lotion “A” to contain 100 μM of active ingredient, and 0.5% DMSO.
Topical applications were made to the back of the patient within the treatment grid which was established to provide a series of sites for UV irradiation, and subsequent application of compositions. Topical application consisted of 2 mg/cm^2 lotion applied firmly, followed by a second 2 mg/cm^2 applied but not rubbed in. Each topical treatment was therefore 0.4 nmols/cm^2 compound in the Formula (I).
The treatment procedure was as follows. On the first day of treatment a minimum erythemal dose of UV (MED) was established for each subject, this being the minimum degree of UV light which on visual determination produces a reddening of the skin. […] The first treatment day was a Monday. Subsequent treatments were as follows:
Expose 3×3 skin sites to 0.75 MED UV.
Immediately, at four hours and at six hours post-UV, • 1 apply nil to three sites • 2 apply topical base lotion to three sites • 3 apply topical equol lotion to three sites according to technique above. Wednesday
Assess erythema (none visible as expected).
Re-expose same 3×3 skin sites to 0.75 MED UV.
Immediately, at four hours and at six hours post-UV, apply topical lotions as above.
Assess erythema visually by ranking the colour intensity of the 3×3 skin sites.
Re-expose same 3×3 skin sites to one MED UV.
Topical applications as before

For the compound `O=c1c(-c2ccc(O)cc2)coc2cc(O)ccc12` [Daidzein, daidzein], the “% Suppression of CHS” value is 27% in test [1] (18 hours of ear challenge) and 37% in test [1] (21 hours of ear challenge). Also, the “prevention/amelioration of UV induced immunosuppression (in words)” value (shortened to “prevention/amelioration”) in test [1] is “did not ameliorate”. In addition, the “average skin fold increase” value in test [2] is “seven”.
For `Oc1ccc(C2COc3cc(O)ccc3C2O)cc1` (stereo not drawn) [tetrahydrodaidzein], in that order: 33%, 31%, “did not ameliorate” and “five”.
On to `Oc1ccc(C2=Cc3ccc(O)cc3OC2)cc1` [dehydroequol], for which the “% Suppression of CHS” value in test [1] (18 hours of ear challenge) is on record as 10%; in test [1] (21 hours of ear challenge), 4%. Besides, in test [1], the “prevention/amelioration” value was “significant activity”. Moreover, in test [2], the “negative average skin fold increase” value is reported as “approximately 0.2”.
Turning to β-(1,3)(1,6)-glucan [Glucan only], in test [3], the “% Suppression of CHS” value came out at 4.5%; the “decreasing percentage suppression of hypersensitivity and skin fold thickness (in words)” value is given as “effective”.
As to `Oc1ccc([C@H]2COc3cc(O)ccc3C2)cc1` [Equol, equol], the figures for the “% Suppression of CHS” value in test [1] (18 hours of ear challenge), in test [1] (21 hours of ear challenge) and in test [3] were 12%, 5% and 6%, respectively. Also, in test [1], the “prevention/amelioration” value is on record as “significant activity”. Also, the “Average erythema intensity (n = 3)” value with Human subjects (48 hours, 0.4 nmols/cm^2 per application) was 0.21; with Human subjects (52 hours), 0.21; in the test with Human subjects (55.5 hours), 0.67; in the test with Human subjects (71 hours), 0.67; in the test on Human subjects (75 hours), 0.38; with Human subjects (77 hours), 0.54. Further, in test [3], the “decreasing percentage suppression of hypersensitivity and skin fold thickness (in words)” value is on record as “effective”. Further, the “erythema/oedema (in words)” value in test [2] was “suppressed erythema/oedema”. Moreover, the “negative average skin fold increase” value in test [2] was “approximately 0.2”.
As for `CC(C(=O)c1ccc(O)cc1O)c1ccc(O)cc1` (stereo not drawn) [ODMA, O-desmethyl-angolensin], the “negative average skin fold increase” value in test [2] is reported as “approximately 0.2”.
As to `O=c1c(-c2ccc(O)cc2)coc2cc(O)cc(O)c12` [Genistein, genistein], the “% Suppression of CHS” value in test [1] (18 hours of ear challenge) is on record as 14%; in test [1] (21 hours of ear challenge) it was 13%. For the same compound, the “prevention/amelioration” value in test [1] was “significant activity”. Further, in test [2], the “erythema/oedema (in words)” value is on record as “suppressed erythema/oedema”. Besides, the “negative average skin fold increase” value in test [2] is recorded as “approximately 0.2”.
